What follows are compounds tested against T1, human renal renin (Homo sapiens, UniProt P00797) (assay: In vitro inhibition of human renal renin (angiotensin I formation measured by radioimmunoassay)). Conditions: human renal renin with human renin substrate (angiotensinogen), 37° C., pH 6.0.
T1 construct: human renal renin, free from acid proteolytic activity; from tissue
T1 sequence (P00797 67-406): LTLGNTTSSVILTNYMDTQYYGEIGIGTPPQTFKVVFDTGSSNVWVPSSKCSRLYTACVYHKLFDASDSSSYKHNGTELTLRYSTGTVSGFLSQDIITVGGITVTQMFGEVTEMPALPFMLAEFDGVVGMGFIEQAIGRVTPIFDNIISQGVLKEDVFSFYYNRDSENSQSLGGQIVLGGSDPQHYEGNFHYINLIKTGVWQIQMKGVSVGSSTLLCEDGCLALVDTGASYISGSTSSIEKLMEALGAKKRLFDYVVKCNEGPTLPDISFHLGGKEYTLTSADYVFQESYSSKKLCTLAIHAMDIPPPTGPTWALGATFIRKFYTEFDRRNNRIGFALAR
Type: biochemical

SMILES | IC50
CC(C)C[C@H](NC(=O)[C@H](C)NC(=O)[C@H](Cc1ccccc1)NC(=O)OC(C)(C)C)C(O)C=O (stereo partly drawn) [Example 3, Boc-Phe-Ala Amide of (3S)-Amino-2-hydroxy-5-methylhexanal] | 10 nM
CC(C)CC(=O)C(O)[C@H](CC1CCCCC1)NC(=O)[C@H](Cc1cnc[nH]1)NC(=O)[C@H](Cc1ccccc1)NC(=O)OC(C)(C)C (stereo partly drawn) [Example 19, Boc-Phe-His Amide of (2S)-Amino-1-cyclohexyl-3-hydroxy-6-methylheptan-4-one] | 10 nM
C[C@H](NC(=O)[C@H](Cc1ccccc1)NC(=O)OC(C)(C)C)C(=O)N[C@@H](CC1CCCCC1)[C@@H](O)CCl [Example 14, Boc-Phe-Ala Amide of (2R,3S)-3-Amino-1-chloro-4-cyclohexyl-2-hydroxybutane] | 400 nM
C[C@H](NC(=O)[C@H](Cc1ccccc1)NC(=O)OC(C)(C)C)C(=O)N[C@@H](CC1CCCCC1)[C@@H](O)CBr [Example 16, Boc-Phe-Ala Amide of (2R,3S)-3-Amino-1-bromo-4-cyclohexyl-2-hydroxybutane] | 700 nM
